Measured values: patent US9944660B2, “Tricyclic benzoxaboroles as antibacterial agents” (Daiichi Sankyo Company, Limited, priority 2014, dated 2018)
Where two headings read alike, the source gives them in different places.

Tests used:
E. coli LRS = target: T1, E. coli LRS (Escherichia coli, UniProt P07813); assay: Leucine tRNA synthetase (LRS) enzyme inhibition assay; type: biochemical
T1 construct: made in house
Procedure: (§1) (Test Example 1) Leucine tRNA Synthetase (LRS) Enzyme Inhibition Assay [IC50]
(§2) E. coli and P. aeruginosa LRS enzymes were cloned, expressed and purified in-house. The IC50 values were determined by using following assay protocol.
(§3) Test compounds were diluted in milli-Q water. 5 μL (microliter) of test compound dilution was mixed with 20 μL of reaction mixture consisting of 100 millimolar Tris (Trizma base from Sigma), 120 millimolar potassium chloride (Sigma), […] magnesium chloride (Sigma), 50 millimolar dithiothreitol, 50 mg/mL E. coli tRNA (Roche), 150 micromolar leucine (Sigma), 0.5 microcurie of ^3H Leucine (Amersham) and 20 μL of appropriate dilution of LRS enzyme, incubate in shaker at about 30° C. for 20 minutes. The reaction was started by adding 5 μL of 40 millimolar ATP (Sigma) and incubated on shaker at the same temperature further for 20 minutes. The reaction was quenched with 150 μL ice cold trichloroacetic acid (10%). The content of each well was transferred to 96 well GF/C plates (from Pall), and washed with 150 μL of trichloroacetic acid (5%) using vacuum manifold (from Pall). Plates were dried and read using Microbeta Wallac liquid scintillation counters after adding 100 μL of scintillation cocktail (Perkin Elmer's OptiPhase ‘SuperMix’) to each well. IC50 was calculated with respect to enzyme control after subtracting background (No enzyme control) using Graph Pad Prism software.

P. aeruginosa LRS = target: T2, P. aeruginosa LRS (Pseudomonas aeruginosa, UniProt Q9HX33); assay: as above; type: biochemical; settings: 3H leucine incorporation
T2 construct: made in house
T2 sequence (Q9HX33 whole entry): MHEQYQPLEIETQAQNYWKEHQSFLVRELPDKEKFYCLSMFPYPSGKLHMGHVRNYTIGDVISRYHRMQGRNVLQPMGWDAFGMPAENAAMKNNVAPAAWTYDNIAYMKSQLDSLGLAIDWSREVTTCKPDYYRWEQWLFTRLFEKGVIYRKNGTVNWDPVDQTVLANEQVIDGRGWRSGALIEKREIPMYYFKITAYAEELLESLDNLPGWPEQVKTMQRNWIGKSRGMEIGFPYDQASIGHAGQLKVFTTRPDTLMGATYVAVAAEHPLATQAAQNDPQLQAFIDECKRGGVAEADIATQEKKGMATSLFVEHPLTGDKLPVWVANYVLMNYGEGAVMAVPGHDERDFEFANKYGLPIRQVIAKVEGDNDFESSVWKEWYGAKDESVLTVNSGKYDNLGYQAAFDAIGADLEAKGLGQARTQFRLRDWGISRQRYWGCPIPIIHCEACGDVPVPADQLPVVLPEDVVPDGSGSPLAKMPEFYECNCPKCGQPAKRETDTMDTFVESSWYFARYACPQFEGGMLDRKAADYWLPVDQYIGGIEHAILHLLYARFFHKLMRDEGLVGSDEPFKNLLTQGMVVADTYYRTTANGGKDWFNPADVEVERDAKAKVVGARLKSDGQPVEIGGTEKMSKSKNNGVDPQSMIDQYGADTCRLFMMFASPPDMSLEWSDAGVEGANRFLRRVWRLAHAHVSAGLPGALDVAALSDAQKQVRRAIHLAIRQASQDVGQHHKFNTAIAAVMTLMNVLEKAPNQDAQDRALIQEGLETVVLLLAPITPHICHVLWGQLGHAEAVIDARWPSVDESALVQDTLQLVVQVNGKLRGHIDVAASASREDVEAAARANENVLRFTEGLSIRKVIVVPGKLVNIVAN
Procedure: as §1, §2, §3

E. coli ATCC 25922 [1] = assay: Bacterial susceptibility testing (MIC, CLSI microdilution); type: cell-based; settings: Escherichia coli, ATCC25922
Procedure: (§4) (Test Example 2) Method of Testing Susceptibility of Bacterial [MICs]
(§5) Minimum inhibitory concentration (MIC) were determined as recommended by the Clinical and Laboratory Standards Institute (CLSI) in 2010 (M100-520), in 2011 (M100-521), 2012 (M100-522) and in 2013 (M100-523) with minor modifications.
(§6) In short, bacterial cultures were streaked on Muller Hinton Agar plates and incubated at 35±2° C. for about 18 to 20 hours. Following day colony suspension was prepared in saline and adjusted to 0.5 McFarland using Densitometer. This culture was further diluted 100 fold in Muller Hinton Broth or M9 minimal media or pooled human urine and used for MIC determination. The test compounds were prepared in dimthylesulfoxide (DMSO) at concentration of 1 mg/mL, and diluted to 32 μg/mL in respective media. Further two fold serial dilution were prepared in 96 well microtiter plates. 50 μL of diluted cultures were added to all wells and incubated at 35±2° C. for about 16 to 20 hours.

P. aeruginosa = assay: as above; type: cell-based; settings: Pseudomonas aeruginosa, strain not stated, read-out: MIC against P. aeruginosa
Procedure: as §4, §5, §6

K. pneumoniae ATCC 13883 = assay: as above; type: cell-based; settings: Klebsiella pneumoniae, ATCC13883
Procedure: as §4, §5, §6

P. aeruginosa PAO-1 = assay: In vivo efficacy in P. aeruginosa PAO1 murine lung infection model; settings: subcutaneous 75 mg/kg twice daily
Procedure: (Test Example 3c) In Vivo Efficacy in P. aeruginosa PAO1 Murine Lung Infection Model Overnight grown culture of P. aeruginosa PAO-1 on TSA agar was inoculated in Brain heart infusion broth (BHI, DIFCO) and grown in a shaker incubator with shaking at 110 rpm at 35±2° C. overnight. The culture was subcultured in 50 mL of BHI and incubated again at 110 rpm at 35±2° C. on a shaker incubator till the optical density of the culture reaches 0.5-0.7 units. For infection, animals were weighed, randomized and anesthetized by giving isofluorane. Under anesthesia the animals were infected with 50 μL of the inoculum prepared as above by intranasal route. The test compounds were administered at 75 mg/kg body weight by subcutaneous route after 1 hour and 6 hours post infection. Animals were euthanized, lungs were removed aseptically and homogenized in PBS (3 mL) and serial dilutions plated on TSA plates 24 hours post infection.

E. coli ATCC 25922 [2] = assay: MICs in Muller Hinton Broth and pooled human urine; type: cell-based; settings: Escherichia coli, ATCC25922
Procedure: as §6
(Test Example 4) MICs in Human Urine Against E. coli and K. pneumonia
Many antibacterial compounds like fluroquinolones loose activity in human urine at acidic pH (acidic urine promotes rigorous bacterial growth). MICs were performed using CLSI guidelines (2011) against E. coli 25922 in Muller Hinton Broth (MHB) and pooled human urine.

P. aeruginosa PAO1 = assay: In vivo efficacy in urinary tract infection (UTI) ascending model; set-up: species or system Mouse; settings: 60 mg/kg body weight twice daily for 3 days, 4th day of infection
Procedure: (Test Example 3a) In Vivo Efficacy in Urinary Tract Infection (UTI) Model Mouse P. aeruginosa UTI ascending model was used. All animals were infected with P. aeruginosa PAO1 by intra-urethral route. Randomization was done 18 hours post infection before starting treatment. Therapy was initiated 18 hours post infection. Animals were treated with 30 mg/kg and 60 mg/kg body weight of test compounds twice daily for 3 days. Animals were sacrificed and cfu loads in kidney and bladder were detected by serial dilution platting on drug free TSA plates on day 4.

[3] = test system: P. aeruginosa PAO1 (parent, MexAB del, MexAB over expression); assay: MICs against Pseudomonas efflux pump mutants; type: cell-based
Procedure: as §6
(Test Example 5) MICs Against Pseudomonas Efflux Pump Mutants
Multidrug-resistant (MDR) P. aeruginosa isolated from nosocomial infections in intensive care units (ICUs) are often related to altered regulation of the specific efflux pumps and porins in P. aeruginosa strains. Tested compounds that show similar activity against efflux pump overproducers and lab strains can be predictive of activity in nosocomial patients infected with MDR strains. To identify such compounds we have determined MICs against P. aeruginosa PAO1 against Efflux deleted and overproducer strains.

E. coli GK00432 = assay: In vivo efficacy in E. coli murine neutropenic thigh infection model; set-up: species or system Swiss albino mice; settings: subcutaneous
Procedure: (Test Example 3b) In Vivo Efficacy in E. coli Murine Neutropenic Thigh Infection Model
Efficacy of test compounds were evaluated by subcutaneous (SC) route against E. coli GK00432 in neutropenic mouse thigh infection model. Study was performed in Swiss albino mice of either sex weighing 20±2 g. Neutropenia was induced by intraperitoneal injections of cyclophosphamide given twice prior to infection (150 mg/kg, at 4 days prior to infection, and 100 mg/kg, at 1 day prior to infection). E. coli inoculum (0.1 mL) was injected intra-muscularly in the thigh muscle. After 2 hours, test compound at a dose of 30 mg/kg and 60 mg/kg body weight were administered by subcutaneous route and one group of mice (n=5) was sacrificed to evaluate total live bacterial count per thigh as baseline bacterial loads. Remaining three doses of test compound were administered by subcutaneous route after […] hours of the infection. Animals were euthanized, thigh muscles were removed aseptically and homogenized in phosphate buffered saline (3 mL) and serial dilutions plated Tryptone Soya Agar plates 26 hours post infection.

[4] = Muller Hinton Broth, read-out: E. coli ATCC 25922 MIC (μg/mL) MHB
[5] = pooled human urine pH 5.5, read-out: E. coli ATCC 25922 MIC (μg/mL) Urine pH 5.5
[6] = PAO1, read-out: MIC (μg/mL) P. aeruginosa PAO1 MexAB del
[7] = PAO1, read-out: MIC (μg/mL) P. aeruginosa PAO1 MexAB over expression
[8] = PAO1, read-out: MIC (μg/mL) P. aeruginosa PAO1 Parent

T1 sequence (P07813 whole entry): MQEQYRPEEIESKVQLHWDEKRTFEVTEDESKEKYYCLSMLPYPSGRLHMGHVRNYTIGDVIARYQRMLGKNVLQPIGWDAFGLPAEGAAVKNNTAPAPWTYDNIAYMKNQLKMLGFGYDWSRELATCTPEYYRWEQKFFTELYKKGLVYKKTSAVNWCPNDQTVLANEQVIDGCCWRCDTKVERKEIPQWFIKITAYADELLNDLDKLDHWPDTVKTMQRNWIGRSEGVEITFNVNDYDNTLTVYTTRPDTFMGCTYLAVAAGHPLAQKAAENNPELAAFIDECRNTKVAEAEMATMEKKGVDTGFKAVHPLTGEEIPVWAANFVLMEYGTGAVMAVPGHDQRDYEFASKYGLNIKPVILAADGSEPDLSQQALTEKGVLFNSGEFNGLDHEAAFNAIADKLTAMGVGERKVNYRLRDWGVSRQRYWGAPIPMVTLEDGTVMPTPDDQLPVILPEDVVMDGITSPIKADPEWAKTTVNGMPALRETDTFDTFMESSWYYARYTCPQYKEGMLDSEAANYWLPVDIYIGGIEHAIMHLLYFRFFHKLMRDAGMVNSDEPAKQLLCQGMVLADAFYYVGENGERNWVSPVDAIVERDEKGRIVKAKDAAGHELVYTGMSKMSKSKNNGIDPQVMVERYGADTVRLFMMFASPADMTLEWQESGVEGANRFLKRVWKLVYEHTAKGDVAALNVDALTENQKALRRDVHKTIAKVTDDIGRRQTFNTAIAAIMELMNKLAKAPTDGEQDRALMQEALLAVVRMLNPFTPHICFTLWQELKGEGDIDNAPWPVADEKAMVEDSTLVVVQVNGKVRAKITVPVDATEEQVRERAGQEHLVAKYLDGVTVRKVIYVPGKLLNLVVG

Row | SMILES | IC50 (E. coli LRS) [nM] | IC50 (P. aeruginosa LRS) [µM] | MIC (E. coli ATCC 25922 [1]) [µg/mL] | MIC (P. aeruginosa) [µg/mL] | MIC (K. pneumoniae ATCC 13883) [µg/mL] | log reduction in cfu from 24 hours untreated control (P. aeruginosa PAO-1) [log] | log reduction in cfu's from baseline (P. aeruginosa PAO-1) [log] | MIC (E. coli ATCC 25922 [2]; [4]) [µg/mL] | MIC (E. coli ATCC 25922 [2]; [5]) [µg/mL] | log reduction from the untreated control in bladder counts (P. aeruginosa PAO1; bladder) [log] | log reduction from the untreated control in kidney counts (P. aeruginosa PAO1; kidney) [log] | MIC [3, 6] [µg/mL] | MIC [3, 7] [µg/mL] | MIC [3, 8] [µg/mL] | log reduction in colony forming units (cfu) from 26 hours untreated control (E. coli GK00432; 30 mg/kg four times daily (QID)) [log] | log reduction in colony forming units (cfu) from 26 hours untreated control (E. coli GK00432; 60 mg/kg four times daily (QID)) [log]
1 | Cl.NC[C@H]1OB(O)c2ccc3c(c21)OCO3 (single isomer, unassigned) [Compound 6, hydrochloride] | < 120 | < 0.12 |  |  |  |  |  |  |  |  |  |  |  |  |  | 
2 | Cl.NC[C@H]1OB(O)c2c1ccc1c2OCO1 (single isomer, unassigned) [Compound 10, hydrochloride] | 380 | 0.62 |  |  |  |  |  |  |  |  |  |  |  |  |  | 
3 | Cl.NC[C@H]1OB(O)c2c1ccc1c2OCO1 (single isomer, unassigned) [Compound 10] |  |  | 2 | 1 | 0.5 | 3.53 | 2.07 | 2 | 4 | 3.83 | 4.18 | 1 | 1 | 1 |  | 
4 | Cl.NCC1OB(O)c2cc3c(cc21)OCO3 (stereo not shown) [Compound 1, 3-(aminomethyl)[1,3]dioxolo[4,5-f][2,1]benzoxaborol-1(3H)-ol hydrochloride] | 1400 | > 10 | 4 |  | 4 |  |  |  |  |  |  |  |  |  |  | 
5 | Cl.NCC1OB(O)c2cc3c(cc21)OCCO3 (stereo not shown) [Compound 2, 3-(aminomethyl)-6,7-dihydro[1,2]oxaborolo[3,4-g][1,4]benzodioxin-1(3H)-ol hydrochloride] | 3350 | > 10 | 4 |  | 8 |  |  |  |  |  |  |  |  |  |  | 
6 | Cl.NCC1OB(O)c2c1ccc1c2CCC1 (stereo not shown) [Compound 3, 3-(aminomethyl)-3,6,7,8-tetrahydro-1H-indeno[4,5-c][1,2]oxaborol-1-ol hydrochloride] | 2500 | 2.2 | 1 |  | 1 |  |  |  |  |  |  |  |  |  |  | 
7 | Cl.NCC1OB(O)c2c1ccc1c2CCCC1 (stereo not shown) [Compound 4, 3-(Aminomethyl)-6,7,8,9-tetrahydronaphtho[1,2-c][1,2]oxaborol-1(3H)-ol hydrochloride] | 4500 | 9.5 | 8 |  | 16 |  |  |  |  |  |  |  |  |  |  | 
8 | Cl.NCC1OB(O)c2ccc3c(c21)OCO3 (stereo not shown) [Compound 5, 8-(aminomethyl)[1,3]dioxolo[4,5-e][2,1]benzoxaborol-6(8H)-ol hydrochloride] | 800 | 2.3 | 1 | 8 | 1 |  |  | 2 | 4 |  |  | 4 | 8 | 4 | 3.1 | 3.8
9 | Cl.NCC1OB(O)c2ccc3c(c21)OCCO3 (stereo not shown) [Compound 7, 9-(aminomethyl)-2,3-dihydro[1,2]oxaborolo[4,3-f][1,4]benzodioxin-7(9H)-ol hydrochloride] | 800 | 0.6 | 8 |  | 16 |  |  |  |  |  |  |  |  |  |  | 
10 | Cl.NCC1OB(O)c2c1ccc1c2OCCO1 (stereo not shown) [Compound 8, 3-(aminomethyl)-7,8-dihydro[1,2]oxaborolo[3,4-f][1,4]benzodioxin-1(3H)-ol hydrochloride] | 2100 | 3.2 | 4 | 4 | 4 |  |  | 8 | 16 |  |  | 4 | 4 | 2 |  | 
11 | Cl.NCC1OB(O)c2c1ccc1c2OCO1 (stereo not shown) [Compound 9, 3-(aminomethyl)[1,3]dioxolo[4,5-g][2,1]benzoxaborol-1(3H)-ol; hydrochloride] | 1700 | 2.7 | 2 | 2 | 2 |  |  | 8 | 8 |  |  | 2 | 4 | 2 |  | 
12 | Cl.NCC1OB(O)c2cc3c(cc21)CCO3 (stereo not shown) [Compound 11, 3-(aminomethyl)-5,6-dihydrofuro[3,2-f][2,1]benzoxaborol-1(3H)-ol hydrochloride] | 2900 | > 10 | 4 |  | 4 |  |  |  |  |  |  |  |  |  |  | 
13 | Cl.NCC1OB(O)c2cc3c(cc21)OCC3 (stereo not shown) [Compound 12, 3-(aminomethyl)-6,7-dihydrofuro[2,3-f][2,1]benzoxaborol-1(3H)-ol hydrochloride] | 2800 | > 10 | 8 |  | 16 |  |  |  |  |  |  |  |  |  |  | 
